Test results: PubChem BioAssay AID179 (DTP/NCI, 2004)
Several values for one entry are separate records, joined by “and”; a condition that tells them apart may be missing. Identical values can stand only once. Activity calls are given as the source filed them.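 Rule for the calls: active = compounds giving half or more protection of infected cells from virus-caused growth loss, again on retest; inactive = the rest.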

Test system: CEM cells HIV-1 protection, formazan growth assay
Experiment: NCI AIDS Antiviral Assay
Settings: for IC50: measured here: growth of uninfected CEM cells
Procedure, shortened: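 Protection of CEM cells against HIV-1 was scored from cell growth (soluble formazan) across five concentrations, with parallel uninfected cells. Lack of protection may reflect toxicity.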

SMILES	EC50 [µM]	IC50	outcome
CC(/C=N/N=C(N)N)=N\N=C(N)N	> 977	2.75 µM and 0.513 µM	–
CN(C)CCN(C)CCN(C)C.Cc1ccc(S(=O)(=O)[O-])cc1.Cc1ccc(S(=O)(=O)[O-])cc1.[Pd+2]	> 200	10.7 µM	–
COC1OC(C)C(NC(=O)OCC(Cl)(Cl)Cl)C2OC(C)(C)OC12 (configuration not stated)	> 331	> 331 µM	–
O=c1c2ccccc2oc2ccccc12	> 26.3	> 26.3 µM	–
Cc1nnc2sc(NN)nn12	> 200	107 µM	–
Cc1ccc(Oc2ccc(C(=O)c3cccc(C(=O)c4ccc(Oc5ccc(C)cc5)cc4)n3)cc2)cc1	> 3.8	> 3.8 µM	–
NNC(=S)NN/C=C(\C=Nc1ccccc1)[N+](=O)[O-]	> 178	155 µM	–
Oc1ccc(C2=CSC3=NCCN23)cc1	–	–	inactive
C#Cc1cccc(NC(=O)/C=C\C(=O)O)c1	> 832	537 µM	–
CCOC(=O)Nc1ccc2c(c1)/C(=N\NC(N)=S)c1ccccc1-2	> 200	3.39 µM	–
COC(=O)C1=C(C(=O)OC)C2(C3C(SC)=CC(C)(C)CC3S1)N(Cc1ccccc1)CCN2Cc1ccccc1 (configuration not stated)	> 9.12	> 9.12 µM	–
CC(C)OC(=O)NCCn1cc(-c2ccccc2)nn1	> 200	> 200 µM	–
Nc1nc2ncn(O)c2c(=O)[nH]1	> 112	0.347 µM	–
CCOC(=O)C1CSC(=N)N1C(C)=O (configuration not stated)	115	123 µM	–
O=C1SC(c2ccc(Cl)cc2)(c2ccc(Cl)cc2)c2ccccc21	> 200	93.3 µM	–
CCN(CC)/C(SCc1ccccc1)=C(\C(Cl)=C(Cl)Cl)[N+](=O)[O-]	> 200	34.7 µM	–
C=C(C)[C@@H]1CC[C@@]2(C)[C@H]1[C@H]1CCC3[C@@]4(C)CC[C@H](O)C(C)(C)[C@@H]4CC[C@@]3(C)[C@]1(C)C[C@@H]2O (some centres not stated)	> 100	66.1 µM	–
O=[N+]([O-])c1cccc(-c2ncc3c(n2)-c2ccccc2C3)c1	–	–	inactive
Oc1ccc(C[C@@H]2CN[C@H](Cc3ccc(O)c(Br)c3)CN2)cc1	> 200	> 200 µM	–
COC(=O)C1CCN(C(=O)OC(C)(C)C)CC1	> 200	> 200 µM	–
c1ccc2c(c1)[nH]c1c[n+]3c(c[n+]12)[nH]c1ccccc13	> 200	> 200 µM	–
OCC1OC2(CCCC3CC32)O[C@H]1CO (some centres not stated)	–	–	inactive
COc1ccc(C(=O)C(C(=O)CCC(=O)Nc2cccc(C(F)(F)F)c2)c2ccccc2)cc1 (configuration not stated)	> 11.2	> 11.2 µM	–

SMILES	EC50 [µM]	IC50	outcome
COC12OCC(OC1OCc1ccccc1)C1OC(C)(C)OC12 (configuration not stated)	> 200	105 µM	–
Sc1ccccc1C1N(Cc2ccc(Cl)cc2)CCCN1Cc1ccc(Cl)cc1	> 100	5.75 µM	–
CCc1nc(N)c2nc(-c3ccc(C#N)cc3)oc2n1	> 100	> 100 µM	–
COc1ccc(-c2c(C(=O)O)oc3cc(O)ccc3c2=O)cc1OC	> 200	> 200 µM	–
NC1CNC(=O)c2c(Cl)sc(Cl)c21 (configuration not stated)	> 200	> 200 µM	–
COC1(OC)N=C(N)C2(C#N)C(C)CC(=O)N(N(C)C)C12C#N (configuration not stated)	> 200	> 200 µM	–
C/C=C/C=Nc1c(C#N)c2n(c1C(=O)Nc1ccc(OC)cc1)CCC2	> 200	> 200 µM	–
CC(=O)N(NC(=O)P(=O)(OC(C)C)OC(C)C)c1ccc([N+](=O)[O-])cc1	> 129	> 129 µM	–
CCOC(=O)c1ccc(NCc2ccc3nc(OC)c(OC)nc3c2)cc1	> 100	> 100 µM	–
COC1C(=O)CCC2(CO2)C1(O)C1(C)OC1CCC(C)C (configuration not stated)	> 200	4.37 µM	–
COc1cc(CC2c3cc(OC)c(OC)cc3CCN2C)c(Oc2cc3c(cc2OC)-c2c(OC)c(OC)c(OC)c4c2C(C3)N(C)CC4)cc1OC (configuration not stated)	–	–	inactive
O=C1C2ON3c4ccccc4C(=O)C3(c3ccccc3)C2C(=O)N1c1ccccc1 (configuration not stated)	> 18.2	> 18.2 µM	–
Nc1nc(SSc2nc(N)nc3c2ncn3C2CC(O)C(CO)O2)c2ncn(C3CC(O)C(CO)O3)c2n1 (configuration not stated)	> 200	9.33 µM	–
O=c1ccn(CC2(CO)CCC2)c(=O)[nH]1	> 200	> 200 µM	–
COC(=O)/C=C/c1ccc2c(c1)CC1(Cc3ccccc3C1)C2	> 200	> 200 µM	–
O=c1c2ccccc2nc(-c2ccccc2)n1NC1OC(CO)C(O)C(O)C1O (configuration not stated)	–	–	inactive
COc1cc2c(c(OC)c1OC)-c1ccc(O)cc1C(NC(C)=O)CC2 (configuration not stated)	> 2	0.0603 µM	–
c1ccc(-c2sc(-c3ccccc3)c3c2[C@H](c2ccccc2)S[C@H]3c2ccccc2)cc1	–	–	inactive
O=C(/C=C/c1ccc(O)c(O)c1O)OCCc1ccccc1	> 200	2.34 µM	–
CC1=C(C(=O)NNC(=O)C[n+]2ccccc2)CC(C(=O)NNC(=O)C[n+]2ccccc2)=C(C)N1	> 200	> 200 µM	–
COC(=O)c1ccccc1/C=C1\Cc2ccc3ccccc3c2C1C (configuration not stated)	> 200	> 200 µM	–
Cc1ccc(N2CN(c3ccc(C)cc3)CC(C)(N)C2)cc1	> 200	24 µM	–
CC[C@](O)(C(=O)O)c1cc2n(c(=O)c1CO)Cc1cc3ccccc3nc1-2	> 0.1	0.012 µM	–

SMILES	EC50 [µM]	IC50	outcome
O=c1ccn(C2OC(CO)C(O)C2[Se]c2ccccc2)c(=O)[nH]1 (configuration not stated)	> 200	> 200 µM	–
CC(C)(C)CC(C)(C)SSc1n[nH]c(=S)s1	> 200	17.4 µM	–
COc1nc2c(nc(N)n2C2OC(CO)C(O)C(O)C2O)c(=O)n1C (configuration not stated)	–	–	inactive
Nc1ncnc2c1ncn2[C@@H]1C[C@H]1CO	> 200	> 200 µM	–
COC(=O)C(CC(=O)c1c[nH]c2ccccc12)c1c[nH]c2ccccc12 (configuration not stated)	–	–	inactive
Cn1c(O)c(N=NC(N)=S)c2ccccc21	> 200	186 µM	inactive
NC(CSSCC(N)C(=O)NCC(=O)O)C(=O)NCC(=O)O (configuration not stated)	> 708	–	–
CC12OOC(c3ccccc31)c1c2ccc2ccccc12 (configuration not stated)	–	–	inactive
CC(=O)Oc1cccc2c1C(=O)CCCC2	> 200	> 200 µM	–
CN(C)N=Nc1ccc(S(N)(=O)=O)cc1	> 295	37.2 µM	–
CCC[CH2][Sn]([CH2]CCC)([O]C(=O)C(OC(C)=O)c1ccccc1)[O]C(=O)C(OC(C)=O)c1ccccc1 (configuration not stated)	> 11.5	0.191 µM	–
COC(=O)C(=O)C(C(=O)C=C(C)C)C(=O)C(=O)Nc1cc(C(F)(F)F)ccc1Cl (configuration not stated)	> 83.2	> 83.2 µM	–
N=c1nc(N)nc2c3ccccc3nnn12	> 24.5	> 24.5 µM	–
O=C(O/N=C1/CCCC/C1=C\c1ccccc1)c1ccc(Cl)cc1	–	–	inactive
CC(C)C(Nc1c2ccccc2nc2ccccc12)C(=O)O (configuration not stated)	–	–	inactive
S=C(NC/C(Br)=C/Br)Nc1cccc2ccccc12	> 200	36.3 µM	–
Cc1nn(C2OC(CO)C(O)C(F)C2O)c(=O)[nH]c1=O (configuration not stated)	> 200	> 200 µM	–
Nc1ccc2c(c1)C1(NC(=O)NC1=O)c1cc(N)ccc1-2	> 200	> 200 µM	–
O=S(=O)(CC#CCO)c1cccc2ccccc12	–	–	inactive
O=C(NC(=O)c1ccccc1)OC(c1ccccc1)C1CO1 (configuration not stated)	> 200	> 200 µM	–
CCN(CC)CCOCCn1c2c(c3ccccc31)CCCC2	> 200	30.9 µM	–
